pEC50: −log10 of the molar value.

The results in this text go back to US20230339886A1 (University of Florida Research Foundation, Incorporated, priority 2020, published 2023).

For the first experiment, the target named is T1, REV-ERBα LBD (human; residues 281-614 Δ324-422) (Homo sapiens, UniProt P20393, DEL324-422).
T1 construct: 6×Histag-REV-ERBα LBD (human; residues 281-614 Δ324-422); made in house; host or cells: Escherichia coli
T1 sequence (P20393 with tags, fused parts or gaps DEL324-422): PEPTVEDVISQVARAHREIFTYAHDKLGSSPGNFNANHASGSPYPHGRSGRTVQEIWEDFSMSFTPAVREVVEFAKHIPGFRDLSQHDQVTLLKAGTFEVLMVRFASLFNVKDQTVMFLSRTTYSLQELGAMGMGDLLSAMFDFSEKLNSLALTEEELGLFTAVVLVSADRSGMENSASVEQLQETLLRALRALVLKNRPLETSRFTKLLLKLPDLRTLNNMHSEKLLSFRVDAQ
T1 sequence (Q9Y618 2335-2356 partner limits assumed): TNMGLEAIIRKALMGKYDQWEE
As to the kind of experiment: TR-FRET corepressor interaction assay (REV-ERBα LBD, FITC-SMRT peptide). In kind it is biochemical. The following applies: FITC-SMRT peptide, read-out: REVERBα agonism (EC50 class, FRET assay). The method in brief:
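Compound serial dilutions (in DMSO, triplicate) incubated 2 h at 4 °C; Tb donor excited at 340 nm, emission read at 495 nm and FITC acceptor at 520 nm. TR-FRET ratio (520/495 nm) plotted against ligand concentration and fitted to a sigmoidal dose-response curve.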
Background: In TR-FRET formats the signal depends on donor and acceptor labels being close together.
As for `CC(C)(C)Cn1cc([C@H](NS(=O)(=O)C2CCC2)C(F)(F)F)c2cc(F)c(-c3ccccc3C#N)cc21` [Example 440, (S)—N-(1-(6-(2-cyanophenyl)-5-fluoro-1-neopentyl-1H-indol-3-yl)-2,2,2-trifluoroethyl)cyclobutanesulfonamide], the pEC50 is over 6.30.

With `CN(C)C(=O)c1ccccc1-c1ccc2c([C@H](NS(=O)(=O)C3CC3)C(F)(F)F)cn(CC(C)(C)C)c2c1` [Example 471, (S)-2-(3-(1-(cyclopropanesulfonamido)-2,2,2-trifluoroethyl)-1-neopentyl-1H-indol-6-yl)-N,N-dimethylbenzamide], the pEC50 is 5.52 to 6.30.

Turning to `CC(C)(C)Cn1cc([C@H](NS(=O)(=O)C2CC2)C(F)(F)F)c2cc(C(F)(F)F)c(-c3ccncc3)cc21` [Example 458, (S)—N-(2,2,2-trifluoro-1-(1-neopentyl-6-(pyridin-4-yl)-5-(trifluoromethyl)-1H-indol-3-yl)ethyl)cyclopropanesulfonamide], the pEC50 was 5.52 to 6.30.

Consider `CC(NS(=O)(=O)C1CCC1)c1cn(CC(C)(C)C)c2cc(-c3ccccc3C(F)(F)F)ccc12` (centres unmarked) [Example 507, N-(1-(1-neopentyl-6-(2-(trifluoromethyl)phenyl)-1H-indol-3-yl)ethyl)cyclobutanesulfonamide], for which the pEC50 is over 6.30.

Still in this experiment, the particulars now being: Table 2, read-out: REVERBα agonism (EC50 class, FRET assay).
For `CN(C)S(=O)(=O)NCCc1cn(C(=O)C(C)(C)C)c2cc(-c3ccncc3)ccc12` [Compound 156, 1-(3-{2-[(dimethylsulfamoyl)amino]ethyl}-6-(pyridin-4-yl)-1H-indol-1-yl)-2,2dimethylpropan-1-one], the pEC50 is under 5.52.

In the case of `CC(C)Cn1cc(-c2ccc(CNS(=O)(=O)C(C)C)cc2)c2ccc(-c3ccccc3)cc21` [Example 87, N-(4-(1-isobutyl-6-phenyl-1H-indol-3-yl)benzyl)propane-2-sulfonamide], the pEC50 was 5.52 to 6.30.

Take `CC(C)Cn1cc([C@H](NS(=O)(=O)C2CC2)C(F)(F)F)c2ccc(-c3ccccc3C(F)(F)F)cc21` [Example 325]: the pEC50 was over 6.30.

As to `CC(C)Cn1cc(-c2cnn(S(=O)(=O)C(C)C)c2)c2ccc(-c3ccccc3)cc21` [Example 63, 1-isobutyl-3-(1-(isopropylsulfonyl)-1H-pyrazol-4-yl)-6-phenyl-1H-indole], the negative logarithm of the EC50 (pEC50) is under 5.52.

Consider `CC(C)Cn1cc(CNS(=O)(=O)CC(C)C)c2ccc(-c3ccncc3)cc21` [Compound 245], for which the pEC50 was over 6.30.

With `CN(C)S(=O)(=O)NCCc1cn(CCOC(C)(C)C)c2cc(-c3ccncc3)ccc12` [Compound 237], the pEC50 was 5.52 to 6.30.

As to `CC(C)S(=O)(=O)NCCc1cn(CC(C)(C)C)c2cc(-c3ccccc3C(F)(F)F)c(F)cc12` [Compound 289], the negative-log EC50 (pEC50) was over 6.30.

Regarding `CN(C)S(=O)(=O)NCCc1c[nH]c2cc(-c3ccncc3)ccc12` [Compound 40, dimethyl({2-[6-(pyridin-4-yl)-1H-indol-3-yl]ethyl}sulfamoyl)amine], the pEC50 was under 5.52.

Turning to `CC(C)Cn1cc(CCNS(=O)(=O)N(C)C)c2ccc(C(C)(C)C)cc21` [Example 106, ({2-[6-tert-butyl-1-(2-methylpropyl)-1H-indol-3-yl]ethyl}sulfamoyl)dimethylamine], the pEC50 was under 5.52.

In the case of `CC(C)Cn1cc(C(C)CNS(=O)(=O)C(C)C)c2ccc(-c3ccncc3)cc21` (centres unmarked) [Compound 251], the pEC50 was over 6.30.

For the molecule `CC(C)Cn1cc(C(C)CNS(=O)(=O)C2CC2)c2ccc(-c3ccccc3)cc21` (centres unmarked) [Compound 256], the pEC50 was under 5.52.

Take `CN(C)S(=O)(=O)NCCc1cn(Cc2cccc(Br)c2)c2cc(-c3ccncc3)ccc12` [Example 143, N-{2-[6-(pyridin-4-yl)-1-(3-bromobenzyl)-1H-indol-3-yl]ethyl}-N,N-dimethylsulfuric diamide]: the pEC50 is over 6.30.

For `CN(C)S(=O)(=O)NCCc1cn(CC2CC2)c2cc(-c3ccncc3)ccc12` [Compound 7], the negative logarithm of the EC50 (pEC50) is over 6.30.

Usually pEC50 stands for −log10 of the EC50, conventionally taken in molar units.
